Experimental findings from US8865911B2, “Compounds and their use as BACE inhibitors” (Astrazeneca AB, priority 2010, dated 2014) are described below.

This assay concerns sAPPβ release, SH-SY5Y cells. As to the kind of experiment: sAPPβ release assay. The class given is cell-based. Particulars: compounds incubated 17 h, MSD detection. The method, then:
Thaw cells and seed at a conc. of around 10000 cells/well in DMEM/F-12 with Glutamax, 10% FCS and 1% non-essential amino acids to a 384-well tissue culture treated plate, 100 μL cell susp/well. […] The cell medium was removed, followed by addition of 30 μL compound diluted in DMEM/F-12 with Glutamax, 10% FCS, 1% non-essential amino acids and 1% PeSt to a final conc. of 1% DMSO. The compounds were incubated with the cells for 17 h (overnight) at 37° C., 5% CO2. Meso Scale Discovery (MSD) plates were used for the detection of sAPPβ release. MSD sAPPβ plates were blocked in 1% BSA in Tris wash buffer (40 μL/well) for 1 h on shake at r.t. and washed 1 time in Tris wash buffer (40 μL/well). 20 μL of medium was transferred to the pre-blocked and washed MSD sAPPβ microplates, and the cell plates were further used in an ATP assay to measure cytotoxicity. The MSD plates were incubated with shaking at r.t. for 2 h and the media discarded. 10 μL detection antibody was added (1 nM) per well followed by incubation with shaking at r.t. for 2 h and then discarded. 40 μL Read Buffer was added per well and the plates were read in a SECTOR Imager.

Molecules are shown by their SMILES.

As usually defined, the IC50 is the concentration at which inhibition is half-maximal. Higher therefore signals weaker potency. `CC1=NC2(CC3(CCCOC3)Oc3ccc(-c4cccc(Cl)c4)cc32)N=C1N` (single isomer, unassigned) [Example 46a Isomer 1, 6′-(3-Chlorophenyl)-5-methyl-5″,6″-dihydro-4″H-dispiro[imidazole-2,4′-chromene-2′,3″-pyran]-4-amine]: the concentration for half-maximal inhibition (IC50) turned out to be 419 nM. The compound `CO[C@H]1CC[C@]2(CC1)Cc1ccc(C#CC(C)(C)C)cc1C21N=C(C)C(N)=N1` (single isomer, unassigned; isomer 1) [Example 20h Isomer 1, (1r,4r)-6′-(3,3-dimethylbut-1-yn-1-yl)-4-methoxy-5″-methyl-3′H-dispiro[cyclohexane-1,2′-indene-1′,2″-imidazol]-4″-amine] came in with an IC50 of 277 nM. As to `CO[C@H]1CC[C@]2(CC1)Cc1ccc(-c3cc(F)cc(C#N)c3)cc1C21N=C(C)C(N)=N1` (single isomer, unassigned; isomer 1) [Example 76 Isomer 1, 3-[(1r,4r)-4″-amino-4-methoxy-5″-methyl-3′H-dispiro[cyclohexane-1,2′-indene-1′,2″-imidazol]-6′-yl]-5-fluorobenzonitrile], the IC50 was 1.2 nM.

Regarding `CCC1=NC2(N=C1N)c1cc(-c3cccc(C#N)c3)ccc1C[C@]21CC[C@@H](OC)CC1` (single isomer, unassigned) [Example 71 Isomer 1, 3-[(1r,4r)-4″-amino-5″-ethyl-4-methoxy-3′H-dispiro-[cyclohexane-1,2′-indene-1′,2″-imidazol]-6′-yl]benzonitrile], the IC50 (listed as 71 Isomer 1) was found to be 5.2 nM.

`CC#Cc1cncc(-c2ccc3c(c2)C2(N=C(N)C(CC)=N2)[C@]2(CC[C@H](OC)CC2)C3)c1` (single isomer, unassigned) [Example 68 Isomer 1, (1r,4r)-5″-ethyl-4-methoxy-6′-[5-(prop-1-yn-1-yl)pyridin-3-yl]-3′H-dispiro[cyclohexane-1,2′-indene-1′,2″-imidazol]-4″-amine] came in with a half-maximal inhibitory concentration (IC50) (Homo sapiens, SH-SY5Y, 17 h) of 0.38 nM. Under “Homo sapiens, SH-SY5Y, 17 h”, `CCC1=NC2(N=C1N)c1cc(-c3cncc(Cl)c3)ccc1C[C@]21CC[C@@H](OC)CC1` (single isomer, unassigned) [Example 66 Isomer 1, (1r,4r)-6′-(5-chloropyridin-3-yl)-5″-ethyl-4-methoxy-3′H-dispiro[cyclohexane-1,2′-indene-1′,2″-imidazol]-4″-amine] displayed a 50% inhibitory concentration (IC50) of 1.6 nM. Compound `CC1=NC2(CC(C3CCOC(C)(C)C3)Oc3ccc(-c4cccc(Cl)c4)cc32)N=C1N` (racemic) [Example 50 Isomeric mixture 2, 6-(3-Chlorophenyl)-2-(2,2-dimethyltetrahydro-2H-pyran-4-yl)-5′-methylspiro[chroman-4,2′-imidazol]-4′-amine] displayed a half-inhibitory concentration (IC50) of 17 nM.
